pIC50: −log10 of the molar value.
Columns and labels:
IL-1β, TNF-α, and IL-6 = experiment: LPS-induced pro-inflammatory cytokine synthesis in PBMC, enzyme immunoassay; type: cell-based, human; details: 1 µg/mL JO-4, LPS-stimulated PBMC
Protocol: Human peripheral blood mononuclear cells (PBMC) were cultured with B-cell mitogen LPS (Gibco BRL, Grand Island, NY) 3 µg/mL) at 2 x 10^6/mL in 1.0 mL volumes in 24-well plates in the presence of either 1 µg/mL JO-4 or medium for 48 hr. In a 37°C incubator with 5% CO2. Culture supernatants were collected at the end of incubation period and were assayed by enzyme immunoassay for the presence of the cytokines: interleukin-1β,-6 and TNF-α. Results are expressed as inhibition of cytokine production.

human PBMCs = experiment: PHA-induced proliferation of human PBMCs; type: cell-based; details: 1.25-50.0 µg/mL, 4 days
Protocol: Human PBMCs were cultured for 4 days in the absence or presence of varying concentrations of JO-4 (1.25, 2.5, 5.0, 10.0 and 50.0 µg/mL). PHA is a potent T-cell mitogen and stimulates T-cells to produce IL-2.

HSV-1 = experiment: In vitro HSV-1 replication assay, Hybriwix Probe Systems; type: cell-based, Herpes simplex virus; details: Human alphaherpesvirus 1, 48 h, two days, African green monkey kidney cells
Protocol: The antiviral activity of the drug was determined using the Hybriwix™ Probe Systems (Herpes Antiviral Susceptibility Test kit: Diagnostic Hybrids, Inc., Athens, OH). Briefly, either HSV-1 or HSV-2 isolates (ATTC, Rockville, MD) were pre-adsorbed at 37°C and 5% CO2 in a humidified incubator for 60 minutes on African green monkey Kidney cells in a 24-well flat-bottom plate. Following pre-adsorption, the viral inoculum was removed and the growth medium containing various concentrations of appropriate drug was placed in appropriate wells. The culture was continued for 48 hours for the amplification of the virus. Quantification of the HSV DNA present in each well was determined by the nucleic acid hybridization method. The cells and/or virus were lysed with DNA wicking agent and the single-stranded DNA was immobilized on a Hybriwix™ filter by a vertical capillary absorption of the wicking agent/DNA solution. The amount of HSV target DNA from each well was determined using radioactive (I^125)-HSV DNA probe containing genetic sequences, which are homologous to HSV-1 or HSV-2 sequences. The amount of radioactivity present on the Hybriwix™ was dependent upon the amount of HSV DNA present after culture, and was determined in a gamma counter (Packard Instrument Co., Meriden, CT).

NK activity = NK activity in vivo, spleen cells against YAC-1 targets, 51Cr-release; set-up: species or system Mice
[1] = tested on: human cervical epitheloid carcinoma (HeLa) cells; experiment: Colorimetric MTT cytotoxicity assay, HeLa; type: cell-based; details: 72 hours, read-out: IC50 (drug concentration capable of inducing 50% cytotoxicity)
Protocol: (§1) The following materials and methods were employed in the non-limiting Examples set out below. Tumor cells: Human cervical epitheloid carcinoma (HeLa), human renal clear cell carcinoma (CAKI-1), human malignant melanoma (RPMI-7951) and mouse malignant melanoma (B16-F1) were procured from ATCC (Rockville, MD) and maintained in vitro with MEM medium (Mediatech, Inc., Herndon, VA) supplemented with 10% heat-inactivated fetal bovine serum (American Qualex, San Clemente, CA), 10mM glutamine, 100 U/ml penicillin, and 100 µg/ml streptomycin (Sigma Chemicals, Saint Louis, MO) (complete medium). […] Cell viability was assessed by trypan blue dye exclusion test and the cell number was adjusted to required concentration. Colorimetric MTT assay: Cytotoxic effects of the hypoestoxide compounds of formulas I and II (JO-4A) were determined in vitro by a colorimetric assay (Mosmann, T., J. Immunol. Methods, 65: 55-63, 1983). […] Mixing with a multichannel pipetter dissolved the dark blue crystals and the absorbance was measured at 545-650 nm using an ELISA plate reader. […] The tumors were measured with a microcaliper, and the tumor volume was calculated by the formula: Length x width x height x 0.5236 (Jungwirth, A. et al., Proc. Natl. Acad. Sci. USA, 94:5810-5813, 1997). […]

[2] = tested on: renal carcinoma (CAKI-1) cells; experiment: Colorimetric MTT cytotoxicity assay, CAKI-1; type: cell-based; details: Homo sapiens; CAKI-1, 72 hours
Protocol: as §1

[3] = Colorimetric MTT cytotoxicity assay, normal cervical ectoepithelial cells; type: cell-based; details: human, crec-ec cells
[4] = tested on: normal human peripheral blood mononuclear cells; experiment: Colorimetric MTT cytotoxicity assay, normal PBMC; type: cell-based; details: 72 hours
Protocol: as §1

[5] = Colorimetric MTT cytotoxicity assay, HMEC; type: cell-based; details: human, read-out: IC50 concentration (cytotoxicity)
[6] = Colorimetric MTT cytotoxicity assay, HUVEC; type: cell-based; details: human, read-out: IC50 concentration (cytotoxicity)
Protocol: as §1

B16-F1 melanoma tumor = B16-F1 melanoma tumor growth and survival in mice; type: in vivo, C57BL/6 (B6) mice; details: for survival of mice: day 28
Protocol: The following materials and methods were employed in the non-limiting Examples set out below. Tumor cells: Human cervical epitheloid carcinoma (HeLa), human renal clear cell carcinoma (CAKI-1), human malignant melanoma (RPMI-7951) and mouse malignant melanoma (B16-F1) were procured from ATCC (Rockville, MD) and maintained in vitro with MEM medium (Mediatech, Inc., Herndon, VA) supplemented with 10% heat-inactivated fetal bovine serum (American Qualex, San Clemente, CA), 10mM glutamine, 100 U/ml penicillin, and 100 µg/ml streptomycin (Sigma Chemicals, Saint Louis, MO) (complete medium). Normal cells: Normal human cervical ectoepithelial cells (CrEc-Ec), normal human mammary epithelial cells (HMEC) and normal human umbilical vein endothelial cells (HUVEC) were obtained from Clonetics (San Diego, CA) and cultured with the respective recommended tissue culture medium obtained from Clonetics. Peripheral Blood Mononuclear cells (PBMC): Heparinized venous blood was obtained from healthy adult volunteers and PBMC were separated by centrifugation over Ficoll-Hypaque (Pharmacia Biotech, Piscataway, NJ). The cells were washed three times with HBSS (Hanks Balanced Salt Solution) and finally resuspended in complete medium. Cell viability was assessed by trypan blue dye exclusion test and the cell number was adjusted to required concentration. Colorimetric MTT assay: Cytotoxic effects of the hypoestoxide compounds of formulas I and II (JO-4A) were determined in vitro by a colorimetric assay (Mosmann, T., J. Immunol. Methods, 65: 55-63, 1983). Briefly, 1000 cells per well (100 µl) in a 96-well flat-bottom plate were cultured either with the culture medium alone or with various concentrations of drug at 37°C, in a 5% CO2-95% air humidified incubator for 72 hours. At the end of the culture, 10 µl of 5 mg/ml sterile solution of 3-(4,5-Dimethylthiazol-2yl)-2,5-diphenyltetrazolium bromide (MTT) (Sigma Chemicals, Saint Louis, MO) in PBS was added per well and the incubation was resumed for an additional 4 hours. Acid-isopropanol (100 µl of 0.04 N HCl in isopropanol) was added to all wells and kept at room temperature for 30 minutes. Mixing with a multichannel pipetter dissolved the dark blue crystals and the absorbance was measured at 545-650 nm using an ELISA plate reader. Mice: Eight-week-old female C57BL/6 (B6) mice were purchased from Charles River Laboratories (Wilmington, MA. The measurement of tumor volume in mice: B16-F1 melanoma cells growing exponentially in vitro were harvested by 15 minutes incubation with 0.25% trypsin-EDTA solution (Irvin Scientific, Irvine, CA). The mice were given subcutaneous (s.c.) injections of 50,000 viable cells on the right side (Fidler, I. J. Cancer Research 35:218-224, 1975). Four days after injection, the mice in the experimental group were gavaged orally with various concentrations of JO-4A in 0.2 ml of water and the control group received water alone. The tumors were measured with a microcaliper, and the tumor volume was calculated by the formula: Length x width x height x 0.5236 (Jungwirth, A. et al., Proc. Natl. Acad. Sci. USA, 94:5810-5813, 1997). Statistical analysis: Students' t-test was used to calculate the level of significance.

SMILES: C=C1C(=O)C[C@H]2C[C@@H]3O[C@@]3(C)CC[C@@H]3O[C@@]3(C)C[C@@H](OC(C)=O)[C@H]1C2(C)C [JO-4, hypoestoxide]
- effect on pro-inflammatory cytokine synthesis (IL-1β, TNF-α, and IL-6): inhibitory or immunosuppressant effect
- effect on PHA-induced proliferation of human lymphocytes (human PBMCs): inhibitory effect
- inhibition at 3.125 µM (HSV-1; 3.125 µM): 53%
- inhibition at 12.5 µM (HSV-1; 12.5 µM): 60%
- pIC50 (HSV-1; read-out: IC50 dose on HSV-1 inhibition): ~5.51

SMILES: C=C1C(=O)CC2CC3OC3(C)CCC3OC3(C)CC(O)C1C2(C)C (centres unmarked) [JO-4A]
- NK activity in vivo (NK activity; intravenous administration): inhibited
- NK activity in vivo (NK activity; oral administration): inhibited
- pIC50 [1]: 4.90 to 5.00
- pIC50 [2]: 4.40 to 4.70
- cytotoxicity ([3]; at the IC50 dose for HeLa (between 10 µM and 12.5 µM), read-out: cytotoxic effect): 6%
- CC50 at 72 h ([3]; normal cervical ectoepithelial cells, 72 hours, read-out: IC50 (cytotoxicity)): > 100 µM
- cytotoxic effect [4]: no cytotoxic effect
- CC50 at 72 h [5]: 25 to 50 µM
- CC50 at 72 h [6]: 25 to 50 µM
- survival of mice (B16-F1 melanoma tumor; 0.1 mg/Kg orally daily day 4 to day 20): 17%
- survival of mice (B16-F1 melanoma tumor; 0.5 mg/Kg orally daily day 4 to day 20): 60%
- survival of mice (B16-F1 melanoma tumor; 1 mg/Kg orally daily day 4 to day 20): 67%
- survival of mice (B16-F1 melanoma tumor; 2 mg/Kg orally daily day 4 to day 20): 84%
- survival compared with non-treated group (B16-F1 melanoma tumor; 2 mg/Kg orally, treatment stopped on day 20): survived longer
- tumor volume (B16-F1 melanoma tumor; oral, daily from day 4 post tumor implantation, all four concentrations tested, measured day 12): significantly reduced
